Patent US20210087159A1, “TETRAHYDROCANNABINOLIC- CA[…] DERIVATIVES AND USES THEREOF” (AL&AM […]., priority 2018, published 2021)

Columns and labels:
Assay type in all cases: cell-based
[1] = tested on: human peripheral blood mononuclear cells (PBMCs); assay: Cell proliferation of LPS-challenged PBMCs by CellTiter-Glo (CTG); settings: for CTG signal: human PBMCs, 72 h (LPS control 84.50); for effect on cell proliferation: LPS-treated human PBMCs, CTG
Text: This study was aimed to test the effect of 12 compounds (THCA, Ia1, Ia5, Ia6, Ia9, Ia11, Ia15, Ia17, Ia24, Ia25, Ia27, and Ia28) on human peripheral blood mononuclear cells (PBMCs) challenged by lipopolysaccharide (LPS) through monitoring multiple inflammatory endpoints.
Blood samples were collected from healthy volunteers according to protocols that have been reviewed and approved by the Chempartner Institutional Ethic Committee (IEC) upon signing an Informed Consent Form (ICF).
Fresh PBMCs were isolated and seeded into 96-well plate, and diluted solutions of the tested compounds and 0.1 μg/mL LPS were then added (in triplicates). To serve as control, 3 wells with PBMCs only, 3 wells with 0.1 μg/mL LPS, and 2 wells with 1 μg/mL dexamethasone (Dex) and 0.1 μg/mL LPS were included. After 72 hours incubation, supernatant was collected for tumor necrosis factor-α (TNF-α) measurement by enzyme-linked immunosorbent assay (ELISA), and cell pellets were harvested for cell proliferation measurement by CellTiter-Glo® Luminescent Cell Viability Assay (CTG).
The human blood sample from an individual donor was diluted by the same volume of sterile phosphate buffered solution (PBS) and mixed sufficiently by gentle shake. 15 mL Lymphoprep™ medium was transferred into a new 50 mL centrifuge tube, and the diluted blood sample (30 mL) was then carefully added onto the surface of the medium, which consequently contained Ficoll 400 and blood in a volume ratio of 1:2. Four interfaces were observed after centrifugation, which are, from top to bottom, layers of plasma, mononuclear cells, Ficoll medium, and red blood cells (RBCs). Plasma was absorbed, and mononuclear cells were then transferred into another new sterile centrifuge tube. Then, sterile PBS buffer was added into the collected PBMCs for washing, at a volume ratio of 3:1. PBMCs were washed with 5-10 mL PBS twice before cell counting with cytometer. Cells were centrifuged at 350×g, for 10 min, at 20° C. with the acceleration (5) and deceleration (5) settings during the centrifugation. The cells were resuspended with RPMI 1640 complete medium (containing 10% FBS) for assay, and the density was adjusted with RPMI 1640 complete medium to the final concentration of 2E6 cells/mL. Cells suspension of the PBMCs (100 μL/well) were seeded into 96-well plate (#3903).
Diluted solutions of the tested compounds were prepared with RPMI 1640 complete medium according to the following layout. Compounds were prepared at 5-fold of concentration (50 μM), and then were diluted to the working concentration of 10 μM with RPMI 1640 complete medium and made 10-fold serially dilution (2 points). The diluted compounds (50 μL/well) were added to the indicated wells, and the plate was incubated at 37° C., 5% CO2, for 72 h.
LPS (0.1 μg/mL, 100 μL) was added into each well. Dex (1 μg/mL) was included as a positive control. Plate was incubated at 37° C., 5% CO2 for 72 h. Supernatant was collected to measure TNF-α by ELISA. Cell proliferation was detected by CTG.

[2] = tested on: U251, brain human glioma; assay: CellTiter-Glo cell viability assay, cancer cell cytotoxicity/anti-proliferation panel (Chempartner); settings: for IC50: Homo sapiens, U-251, 72 h, read-out: IC50 (absolute IC50); for Inhibition: U251, 72 hours, compounds 10 μM starting, STS 2 μM starting, 10-pt, 3-fold dilution
[3] = tested on: PANC-1 (pancreatic carcinoma); assay: XTT cytotoxicity assay (Pharma Seed); settings: Homo sapiens, 48 hours, 20, 10, 5, 1 μM, assay medium 1% FBS
Procedure: In this study, the cytotoxicity of several compounds of the present invention on lung and pancreatic cancer cell was evaluated.
PANC-1 (pancreatic carcinoma) culture medium: DMEM (High Glucose), supplemented with 10% FBS (heat inactivated), 2 mM L-glutamine, and 1% of Pen/Strep/Amp solution. PANC-1 assay medium: DMEM (High Glucose), supplemented with 1% FBS (heat inactivated), 2 mM L-glutamine, and 1% of Pen/Strep/Amp solution.
Each of the tested compounds was dissolved in DMSO to reach a stock concentration of 20 mM (and stored at −15° C.-−25° C. until use. Compound Ia28 (MW 484 g/mol, 3.05 mg total) was dissolved in 0.315 mL; compound Ia9 (MW 484 g/mol, 2.33 mg total) was dissolved in 0.241 mL; and compound Ia6 (MW 428.3 g/mol, 2.25 mg total) was dissolved in 0.262 mL.
On the day of incubation with the cells, each compound was diluted in DMSO to reach 2 mM, 1 mM, 0.5 mM, 0.1 mM stock concentrations (1:10, 1:20, 1:40 and 1:200), and each of these stocks was further diluted in assay medium 1:100 for final concentration of 20 μM, 10 μM, 5 μM, and 1 μM.
Part 1—cell number calibration. PANC-1 and A549 cells were each plated in a 96 well plate, in their culture medium, at various cell concentrations per well, in triplicates, and were allowed to attach for 24 hours. Thereafter, culture medium was discarded, assay medium was added, and the cells were incubated for additional 72 hours. Finally, assay medium was discarded, and fresh culture medium was added to the cells along with 50 μl XTT reagent. The OD was measured every two hours for 6 hours (three times).
The highest cells number/well were chosen for part 2 as follows: PANC-1 at 7,500 cells per well, A549 at 5000 cells per well.
Part 2—cells incubation with tested compounds. PANC-1 and A549 cells were plated in a 96 well plate, in their culture medium, at the optimal cell concentration according to the results from the previous section and were allowed to attach for 24 hours. Thereafter, the culture medium was discarded, and fresh assay medium was added to the cells, supplemented with elevating compound concentrations. Triton 0.1% was used as positive control for cell death. The cells were incubated for another 48 hours (TBD upon microscopic observation). Finally, fresh culture medium was added to the cells along with 50 μl XTT reagent. The OD was measured at the optimal time point according to the results in the previous section.

SMILES	CTG signal ([1]; compound 1 μM + 0.1 μg/mL LPS)	CTG signal ([1]; compound 10 μM + 0.1 μg/mL LPS)	IC50 [2] [µM]	Inhibition [2] [%]	IC50 [3] [µM]	effect on cell proliferation [1]
CCCCCc1cc2c(c(O)c1C(=O)O)[C@@H]1C=C(C)CC[C@H]1C(C)(C)O2 [THCA, tetrahydrocannabinolic acid, reference compound]	74.89 10^4	75.54 10^4	> 10	17.22		
C=C(C)[C@@H]1CCC(C)=C[C@H]1c1c(O)cc(CCCCC)c(C(=O)NCCCN2CCOCC2)c1O [Ia28, (1′R,2′R)-2,6-dihydroxy-5′-methyl-N-(3-morpholinopropyl)-4-pentyl-2′-(prop-1-en-2-yl)-1′,2′,3′,4′-tetrahydro-[1,1′-biphenyl]-3-carboxamide]	76.24 10^4	72.61 10^4			19	
CCCCCc1cc2c(c(O)c1C(=O)NCCN(C)C)[C@@H]1C=C(C)CC[C@H]1C(C)(C)O2 [Ia6, (6aR,0aR)—N-(2-(dimethylamino)ethyl)-1-hydroxy-6,6,9-trimethyl-3-pentyl-6a,7,8,10a-tetrahydro-6H-benzo[c]chromene-2-carboxamide]	80.67 10^4	37.67 10^4	7.23	70.02	9.4	inhibition of cell proliferation
CCCCCc1cc2c(c(O)c1C(=O)NCCCN1CCOCC1)[C@@H]1C=C(C)CC[C@H]1C(C)(C)O2 [Ia9, (6aR,0aR)-1-hydroxy-6,6,9-trimethyl-N-(3-morpholinopropyl)-3-pentyl-6a,7,8,10a-tetrahydro-6H-benzo[c]chromene-2-carboxamide]	77.55 10^4	23.31 10^4	8.91	68.11	11.4	inhibition of cell proliferation
